{"source": "patent US6509163B1", "about": "“Methods of screening modulators of mammalian P2X7 purinergic receptors” (Glaxo Group Limited, priority 1997, dated 2003)", "format_in_all_cases": "cell-based", "key": {"P2X7 receptor [1]": {"molecular_target": "T1, P2X7 receptor (Rattus norvegicus, UniProt Q64663)", "T1 construct": "yielding a construct that encoded the entire P2X7 protein; expressed in transfected cells", "T1 sequence (Q64663 1-595)": "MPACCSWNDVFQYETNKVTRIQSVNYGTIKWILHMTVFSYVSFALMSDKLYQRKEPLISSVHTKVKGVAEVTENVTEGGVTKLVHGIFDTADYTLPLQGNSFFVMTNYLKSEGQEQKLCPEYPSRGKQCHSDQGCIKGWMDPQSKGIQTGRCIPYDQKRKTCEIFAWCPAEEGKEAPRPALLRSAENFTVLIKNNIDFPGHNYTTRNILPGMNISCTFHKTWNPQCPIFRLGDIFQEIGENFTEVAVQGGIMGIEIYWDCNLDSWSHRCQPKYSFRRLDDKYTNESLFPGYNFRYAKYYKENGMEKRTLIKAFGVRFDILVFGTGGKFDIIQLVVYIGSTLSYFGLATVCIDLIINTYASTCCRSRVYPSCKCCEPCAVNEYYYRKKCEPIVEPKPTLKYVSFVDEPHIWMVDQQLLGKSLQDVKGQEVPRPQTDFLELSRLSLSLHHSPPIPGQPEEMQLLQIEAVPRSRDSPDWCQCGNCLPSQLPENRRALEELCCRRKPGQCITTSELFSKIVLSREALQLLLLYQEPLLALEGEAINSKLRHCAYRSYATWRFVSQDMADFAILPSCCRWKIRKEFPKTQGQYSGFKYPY", "experiment": "YO-PRO-1 uptake, cell counts, in HEK cells stably expressing P2X7 receptor", "details": "incubation with BzATP for 3 to 5 min, low concentration of divalent cations", "protocol": "YO-PRO-1 (10 μM; Molecular Probes, Eugene, Oreg.) was added to the superfusion fluid during electrophysiological recordings 3 to 6 min before switching to low divalent solution and washed out upon switching back to normal divalent solution, after which the fluorescent lamp was turned on and cells were examined with a fluorescein isothiocyanate filter. For cell counts, 500 cells per cover slip were counted in each case."}, "[2]": {"molecular_target": "T2, h-rP2X7 (human 1-346, rat 347-595) (Homo sapiens, UniProt Q99572, A348T/A433Q/A445S/A505Q/C493A/C552S/D356N/D438E/D448H/D537E/D539E/E585Q/F350C/F353L/F525L/G559V/H366R/H491R/H521E/I367V/I459M/K464I/K501R/L354I/L516I/M434T/N361T/N413D/P443S/Q375E/R410W/R419K/R463Q/R514S/R544K/R576K/S359A/S390P/S407P/S481N/S490N/S540A/S584T/S593Y/T437L/T449S/T467V/T541I/V378A/V475D/V522A/V538G/W370S)", "T2 construct": "h-rP2X7 (human 1-346, rat 347-595); expressed in transfected cells; host or cells: HEK293 (transient)", "T2 sequence (Q99572 1-595 A348T/F350C/F353L/L354I/D356N/S359A/N361T/H366R/I367V/W370S/Q375E/V378A/S390P/S407P/R410W/N413D/R419K/A433Q/M434T/T437L/D438E/P443S/A445S/D448H/T449S/I459M/R463Q/K464I/T467V/V475D/S481N/S490N/H491R/C493A/K501R/A505Q/R514S/L516I/H521E/V522A/F525L/D537E/V538G/D539E/S540A/T541I/R544K/C552S/G559V/R576K/S584T/E585Q/S593Y)": "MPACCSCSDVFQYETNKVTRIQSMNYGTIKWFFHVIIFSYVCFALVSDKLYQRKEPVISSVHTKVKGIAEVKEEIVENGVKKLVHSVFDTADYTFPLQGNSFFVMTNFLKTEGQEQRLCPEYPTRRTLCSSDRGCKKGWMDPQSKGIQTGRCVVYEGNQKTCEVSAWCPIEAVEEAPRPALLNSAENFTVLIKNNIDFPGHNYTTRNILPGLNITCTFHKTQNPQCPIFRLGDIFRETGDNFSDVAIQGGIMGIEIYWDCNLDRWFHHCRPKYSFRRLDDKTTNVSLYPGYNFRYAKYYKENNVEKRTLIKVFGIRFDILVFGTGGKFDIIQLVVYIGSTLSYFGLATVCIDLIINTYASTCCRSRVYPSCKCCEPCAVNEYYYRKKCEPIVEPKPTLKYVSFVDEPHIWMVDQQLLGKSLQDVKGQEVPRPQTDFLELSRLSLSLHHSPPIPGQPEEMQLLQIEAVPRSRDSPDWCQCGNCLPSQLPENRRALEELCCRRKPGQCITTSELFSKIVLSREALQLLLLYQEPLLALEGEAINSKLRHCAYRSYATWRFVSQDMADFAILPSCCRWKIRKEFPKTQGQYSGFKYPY", "experiment": "Whole-cell recordings in HEK293 cells expressing chimeric h-rP2X7 receptors", "details": "low divalent concentrations, after removal of BzATP, n=10", "source_text": "Chimeras. A silent restriction site (NheI) was introduced at the equivalent positions in the rat and human cDNAs using the Pfu mutagenesis kit (Stratagene) (T to G at 1069 in rP2X7; G to A at 1072 in hP2X7) . A NheI-XhoI fragment corresponding to 3′ extremity of each cDNA was then excised and subcloned in the opposite plasmid (i.e. human 3′ end into rat background). The resulting chimeras were h-rP2X7 (human 1-346, rat 347-595) and r-hP2X7 (rat 1-346, human 347-595) (FIG. 5). All constructions were sequenced on their entire coding region.\nCell culture. HEK293 cells were transiently transfected with cDNA (1 μg/ml) and lipofectin dissolved in Optimem (GIBCO) placed into petri dishes containing four coverslips onto which cells were plated at a density of about 8×10^4/coverslip. Cells were washed 5 h later and normal DMEM applied. Electrophysiological studies or dye uptake measurements were carried out 18-49 h later. For each set of transfections, parallel experiments were performed on HEK cells transfected with cDNA encoding both rP2X7 and hP2X7 receptors.\nElectrophysiological experiments. Whole-cell recordings were made using the EPC9 patch-clamp amplifier and Pulse acquisition programs (HEKA, Lambrecht, Germany). Patch pipettes (5-7 MΩ) contained (mM) CsCl or NaCl 154, EGTA 10, HEPES 5. […]"}, "P2X7 receptor [3]": {"molecular_target": "T1, P2X7 receptor", "experiment": "Whole-cell recordings of agonist-evoked currents in HEK293 cells transfected with rat P2X7 cDNA (Example 2)", "details": "inward currents, brief application (0.5 to 2 s)"}}, "data": [{"smiles": "Nc1ncnc2c1ncn2[C@@H]1O[C@H](COP(=O)(O)OP(=O)(O)OP(=O)(O)O)[C@@H](OC(=O)c2ccc(C(=O)c3ccccc3)cc2)[C@H]1O", "note": "[BzATP, 3′-O-(4-benzoyl)benzoyl ATP]", "values": [{"measurement": "stably transfected cells that took up YO-PRO-1", "setting": "P2X7 receptor [1]", "result": "> 85", "unit": "%"}, {"measurement": "current measured at 30 s, of peak", "setting": "[2]", "result": "70±4"}, {"measurement": "agonist order of potency", "setting": "P2X7 receptor [3]", "result": "BzATP>>ATP>2MeSATP>ATP-γ-S>>ADP"}]}]}
